Values of other authors in PubChem BioAssay AID1259409 (Chemical Carcinogenesis Research Information System (CCRIS), 2018).
“And” between values parts separate entries of the source, which are not always exact repeats. Equal entries are not always repeated.

System: rodent chemically induced tumor inhibition, incidence and multiplicity
Assay: CCRIS tumor inhibitor studies
Conditions: Route [Inhibitor]: ORAL, Promoter: NONE USED

Compound	tumour outcome (control, treated, inhibition, significance) (Carcinogen: 7,12-DIMETHYLBENZ(A)ANTHRACENE, 57-97-6, Dose [Inhibitor]: 0.034 MMOL/G IN DIET BEGINNING 1 D PRIOR TO CARCINOGEN DOSE AND CONTINUING FOR 8 D (STUDY DURATION: 23 WK), Species: RAT, Strain/Sex: SPRAGUE-DAWLEY/FEMALE, Target Tissue: Type of Lesion: MAMMARY GLAND: TUMOR, Dose [Carcinogen]: 12 MG IN 1.0 ML OLIVE OIL ONCE)	tumour outcome (control, treated, inhibition, significance) (Carcinogen: 7,12-DIMETHYLBENZ[A]ANTHRACENE, 57-97-6, Dose [Inhibitor]: 0.068 MMOL/G IN DIET BEGINNING 7 D PRIOR TO CARCINOGEN DOSE AND CONTINUING FOR 8 D (STUDY DURATION: 23 WK), Species: RAT, Strain/Sex: SPRAGUE-DAWLEY/FEMALE, Target Tissue: Type of Lesion: MAMMARY GLAND: TUMOR, Dose [Carcinogen]: 12 MG IN 1.0 ML OLIVE OIL)	tumour outcome (control, treated, inhibition, significance) (Carcinogen: BENZO[A]PYRENE, 50-32-8, Dose [Inhibitor]: 0.068 MMOL/G IN DIET FOR 5 WK BEGINNING 1 WK PRIOR TO CARCINOGEN TREATMENT (STUDY DURATION: 21 WK), Species: MOUSE, Strain/Sex: ICR/FEMALE, Target Tissue: Type of Lesion: FORESTOMACH: TUMOR, Dose [Carcinogen]: 1 MG IN 0.2 ML CORN OIL, 2/WK FOR 4 WK)	tumour outcome (control, treated, inhibition, significance) (Carcinogen: BENZO[A]PYRENE, 50-32-8, Dose [Inhibitor]: 0.03 MMOL/G OF DIET DAILY STARTING 7 D BEFORE AND CONTINUING THROUGH 3 D AFTER CARCINOGEN TREATMENT FOLLOWED BY OBSERVAT, Species: MOUSE, Strain/Sex: ICR/FEMALE, Target Tissue: Type of Lesion: FORESTOMACH: NEOPLASM, Dose [Carcinogen]: 1 MG IN 0.2 ML CORN OIL 2/WK FOR 4 WK)
O=c1ccc2ccccc2o1	86%, 31%, 64%, p<0.01	86%, 14%, 84%, p<0.01,	100%, 61%, 39%, p<0.05	–
Cc1cc(C)c(C)c(O)c1C	–	–	–	97%, 88%, 9%, not significant and 94%, 89%, 5%, not significant
